Consider 15 molecules from PubChem BioAssay (NCI).

Experiment in all cases: inhibition of tumour cell growth, NCI panel, 48 h
Experiment [1] deals with OVCAR-8 ovarian.
Experiment [2] deals with KM12 colon.
Experiment [3] deals with UO-31 renal.
Experiment [4] has as its system MCF7 breast.
The test system of experiment [5] is COLO 205 colon.
Experiment [6] relates to RPMI-8226 leukemia.
The test system of experiment [7] is NCI-H522 lung.
In experiment [8] the test system is SK-OV-3 ovarian.
For experiment [9], the system named is HCC-2998 colon.
In experiment [10] the test system is T-47D breast.

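48-hour exposure; five concentrations; linearly interpolated endpoints. The concentration for 50% growth inhibition is given as GI50. At the TGI there is no net growth.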 Where only a bound is given, the exact number is not on record here.

`Cc1ccc(C(=O)N=Nc2c(O)[nH]c3ccc(Cl)cc23)cc1`: the GI50 in [1] is 10.8 µM; in [2], above 50 µM; in experiment [3] it was above 50 µM; in [4], 13.5 µM; in [5] it was 19 µM; in [6], 5.74 µM. Besides, in experiment [7], the GI50 was 20.2 µM. The TGI in experiment [1] was 32.4 µM; in experiment [2], above 50 µM; in [3], above 50 µM; in experiment [4], above 50 µM; in experiment [5], above 50 µM; in experiment [6], above 50 µM. For the same molecule, in [7], the TGI is above 50 µM.

For the molecule `Cc1cc2c(cc1C)[n+](Cc1ccc3ccccc3n1)cn2Cc1ccc2ccccc2n1`, the GI50 in [2] is 0.568 µM; in experiment [3], 1.33 µM; in [8] it was 1.69 µM; in experiment [5] it was 0.387 µM; in experiment [9], 1.27 µM; in experiment [6] it was 0.301 µM. Also, the GI50 is 0.393 µM in [10] and 0.704 µM in experiment [7]. The TGI in experiment [2] stood at 2.06 µM; in experiment [3] it was 2.84 µM; in experiment [8] it was 4.13 µM; in experiment [5], 1.58 µM; in experiment [9] it was 2.73 µM; in experiment [6], 1.62 µM. In addition, the TGI came to 2.93 µM in experiment [10] and 2.47 µM in experiment [7].

As for `CCOC(=O)c1nc2cc(C(F)(F)F)ccc2[n+]([O-])c1C`, the GI50 in experiment [1], in [2], in [3], in experiment [4], in [8] and in experiment [5] was above 100 µM throughout. Besides, the GI50 in experiment [9], in [6] and in experiment [7] was above 100 µM throughout. Also, the TGI in experiment [1], in [2], in experiment [3], in experiment [4], in experiment [8] and in experiment [5] was above 100 µM in each case. Also, the TGI in experiment [9], in experiment [6] and in experiment [7] was above 100 µM each time.

`NCCN1C(=O)c2ccccc2C1(O)c1ccc(Cl)cc1` (centres undefined): the TGI in [1] was above 100 µM; in experiment [2], 30.5 µM; in experiment [4], 32.6 µM; in experiment [8], 81.1 µM; in [5] it was 39.4 µM; in experiment [6], 39.7 µM. Also, the TGI in experiment [10] came out at 37.8 µM; in experiment [7], 27.9 µM.

Regarding `Cc1cc2c(=O)[nH]c(N)nc2nc1C`, the TGI in experiment [1], in experiment [2], in experiment [3], in experiment [4], in experiment [8] and in experiment [5] was above 100 µM each time. Also, the TGI in experiment [6], in experiment [10] and in [7] was above 100 µM each time.

Take `CCc1ncnc2cc(OCC3CO3)c(OC)cc12` (centres undefined): the TGI in [1] was 14.3 µM; in [2], 49.3 µM; in [3], 18.4 µM; in [4], above 42.7 µM; in experiment [8], 73.6 µM; in experiment [5] it was 21.8 µM. The TGI was 5.38 µM in [6], above 100 µM in [10] and 9.94 µM in experiment [7].

`CCN1C(=O)N(CC)C2C1NN=c1s/c(=C\c3cccc([N+](=O)[O-])c3)c(=O)n12` (centres undefined): the GI50 in experiment [1] was 0.172 µM; in [2], 0.0404 µM; in [3], 0.321 µM; in [4], 0.0366 µM; in [5], 0.0663 µM; in experiment [9], 0.229 µM. The results for the GI50 in experiment [6] and in experiment [7] were 0.127 µM and 0.0427 µM, respectively. The TGI is above 100 µM in experiment [1]; above 100 µM in experiment [2]; above 100 µM in experiment [3]; above 100 µM in experiment [4]; 0.538 µM in [5]; above 100 µM in [9]. Moreover, the results for the TGI in experiment [6], in experiment [10] and in [7] were above 100 µM, above 100 µM and 3.4 µM, respectively.

For `N#C/C(=C\c1cccc2cnccc12)N1N=NC2C=CC=CC21` (centres undefined), the GI50 was 3.32 µM in experiment [1]; 2.96 µM in experiment [2]; 0.602 µM in [3]; 0.557 µM in experiment [4]; 2.08 µM in experiment [8]; 3.48 µM in experiment [5]. For the same molecule, the GI50 was 4.32 µM in experiment [9], 0.582 µM in experiment [10] and 2 µM in [7]. The TGI was above 100 µM in experiment [1]; 32 µM in [2]; above 100 µM in experiment [3]; above 100 µM in experiment [4]; 25.9 µM in [8]; above 100 µM in experiment [5]. The TGI in experiment [9] is above 100 µM; in experiment [10], 6.4 µM; in experiment [7], above 100 µM.

On to `Cn1c(C(C)(C)OC(=O)Oc2ccccc2)cnc1[N+](=O)[O-]`, for which the TGI in experiment [1], in experiment [2], in experiment [3], in [4], in [8] and in experiment [5] was above 100 µM in each case. For the same molecule, the TGI was 77.1 µM in [6], above 100 µM in experiment [10] and above 100 µM in experiment [7].

As for `O=S(=O)(NCCO)c1cc[c]([Sb](=[O])([OH])[OH])cc1`, the GI50 in [1], in experiment [2], in [3], in experiment [9], in experiment [6] and in [10] was above 100 µM in each case. In addition, the GI50 in [7] is above 100 µM. In addition, the TGI in experiment [1], in experiment [2], in [3], in experiment [9], in experiment [6] and in experiment [10] was above 100 µM throughout. The TGI in experiment [7] was above 100 µM.

`Cc1cc(NS(=O)(=O)c2ccc(Nc3c4ccccc4nc4c(C(=O)Nc5ccc(S(=O)(=O)N=C(N)N)cc5)ccc(Cl)c34)cc2)no1`: the TGI in experiment [1] was 38.5 µM; in [2], above 100 µM; in experiment [3] it was above 100 µM; in experiment [8], 95.4 µM; in experiment [5] it was above 100 µM; in [9] it was above 100 µM. The TGI in [6] is above 100 µM; in experiment [7] it was 33.2 µM.

Consider `CCCCN1CCN(c2ccc3nc(-c4ccc5nc(-c6ccc(OCC)c(OCC)c6)[nH]c5c4)[nH]c3c2)CC1`, for which the GI50 in [2] is 1.42 µM; in experiment [3], 2 µM; in [8], 1.33 µM; in experiment [5] it was 0.231 µM; in experiment [6], 0.436 µM; in experiment [10], 1.36 µM. Moreover, in experiment [7], the GI50 is 1.2 µM. Also, the TGI in experiment [2] was found to be 2.99 µM; in [3], 5.8 µM; in experiment [8], 3.27 µM; in [5] it was 1.52 µM; in [6], 2.06 µM; in [10], 7.88 µM. In experiment [7], this molecule showed a TGI of 3.97 µM.

`COc1ccc(-c2nc(-c3nc4ccc(C(F)(F)F)cc4[nH]3)c3ccccn23)cc1`: the GI50 in experiment [1] is 22.7 µM; in experiment [2], 36.4 µM; in experiment [3], above 100 µM; in experiment [4], 26.3 µM; in [8] it was above 100 µM; in experiment [5], above 100 µM. The GI50 is 51.8 µM in experiment [9], 5.33 µM in [10] and above 100 µM in experiment [7]. Besides, the TGI in experiment [1], in [2], in experiment [3], in experiment [4], in [8] and in experiment [5] was above 100 µM each time. Also, the TGI in [9], in experiment [10] and in [7] was above 100 µM in each case.

Turning to `COc1ccc(C#CC2=C(c3cc(OC)c(OC)c(OC)c3)C(=O)OC2)cc1`, the GI50 in experiment [1] was 3.23 µM; in experiment [2], 1.63 µM; in [3], 18.9 µM; in [4], 0.948 µM; in experiment [5] it was 4.15 µM; in experiment [6] it was 1.21 µM. For the same molecule, the GI50 in [7] is 8.6 µM. In addition, the TGI is 22.5 µM in experiment [1]; 27.4 µM in experiment [2]; above 50 µM in experiment [3]; above 50 µM in experiment [4]; above 50 µM in [5]; 3.56 µM in experiment [6]. For the same molecule, the TGI in [7] is above 50 µM.

On to `O=C1c2c(c3c4ccccc4[nH]c3c3[nH]c4ccccc4c23)C(=O)N1Cc1ccccc1`, for which the TGI in experiment [1] amounted to 13.8 µM; in [2] it was 9.47 µM; in experiment [3], 6.69 µM; in [8] it was 9.49 µM; in experiment [5] it was 4.66 µM; in experiment [9] it was 16.3 µM. Besides, the TGI came to 6.74 µM in experiment [6] and 4.72 µM in [7].
